Source: ChEMBL document CHEMBL1212878, “In vitro ADMET and physicochemical investigations of poly-N-methylated peptides designed to inhibit Abeta aggregation” (Bioorg Med Chem, 2010)
Converted amounts (≈) assume the structure as drawn. The source made the active and inactive calls. The calls are words filed in the database; no cut-off is given here. Square brackets hold non-standard residues; d marks the D form. Peptide text beside a SMILES is read from it. NMeF = CN[C@@H](Cc1ccccc1)C(=O)O; NMeI = CC[C@H](C)[C@H](NC)C(=O)O; NMeL = CN[C@@H](CC(C)C)C(=O)O; NMeV = CN[C@H](C(=O)O)C(C)C; NMeA = CN[C@@H](C)C(=O)O; Sar = CNCC(=O)O

Assays:
[1] = Apparent permeability across rat 2/4/A1 cells in absence of pronase inhibitor; format: ADME, cell-based
[2] = Aqueous solubility of the compound at pH 7.4; format: physicochemical
[3] = Chemical stability of the compound assessed as compound remaining after enzymatic degradation after 24 hrs; format: physicochemical; settings: read-out: Activity
[4] = Cytotoxicity against rat 2/4/A1 cells assessed as cell viability up to 200 uM after 4 hrs by MTT assay; format: cell-based; settings: read-out: Activity
[5] = Inhibition of Amyloid beta aggregation

With CC[C@H](C)[C@H](NC(C)=O)C(=O)N(C)CC(=O)N[C@@H](CC(C)C)C(=O)N[C@@H](CCSC)C(=O)N[C@H](C(=O)N(C)CC(N)=O)C(C)C (Ac-I[Sar]LMV[Sar]-NH2) the Papp [1] was 2.2 ×10⁻⁶ cm/s, the solubility [2] was > 2500 µM and the remaining at 24 h [3] was 60%. For the same compound, the viability at 4 h [4] was 95%.
CC(=O)N[C@@H](CCCCN)C(=O)N[C@@H](CC(C)C)C(=O)N(C)[C@H](C(=O)N[C@@H](Cc1ccccc1)C(=O)N(C)[C@@H](Cc1ccccc1)C(=O)N[C@@H](C)C(N)=O)C(C)C (Ac-KL[NMeV]F[NMeF]A-NH2) gave a solubility [2] of 1580 µM (≈ 1260 µg/mL), a remaining at 24 h [3] of 96% and a viability at 4 h [4] of 95%.
In the case of CC(=O)N[C@@H](CCCCN)C(=O)N(C)[C@@H](CC(C)C)C(=O)N[C@H](C(=O)N(C)[C@@H](Cc1ccccc1)C(=O)N[C@@H](Cc1ccccc1)C(=O)N(C)[C@@H](C)C(N)=O)C(C)C (Ac-K[NMeL]V[NMeF]F[NMeA]-NH2), the solubility [2] is reported as > 2500 µM, the remaining at 24 h [3] is reported as 94% and the viability at 4 h [4] is reported as 95%.
In the case of CC(=O)N[C@@H](CCCCN)C(=O)N(C)[C@@H](CC(C)C)C(=O)N(C)[C@H](C(=O)N(C)[C@@H](Cc1ccccc1)C(=O)N(C)[C@@H](Cc1ccccc1)C(=O)N(C)[C@@H](C)C(N)=O)C(C)C (Ac-K[NMeL][NMeV][NMeF][NMeF][NMeA]-NH2), the Papp [1] is reported as 2.3 ×10⁻⁶ cm/s, the solubility [2] is reported as 899 µM (≈ 751 µg/mL) and the remaining at 24 h [3] is reported as 98%. It also gave a viability at 4 h [4] of 95%.
In the case of CC[C@H](C)[C@@H](C(=O)NCC(=O)N(C)[C@@H](CC(C)C)C(=O)N[C@@H](CCSC)C(=O)N(C)[C@H](C(=O)NCC(N)=O)C(C)C)N(C)C(C)=O (Ac-[NMeI]G[NMeL]M[NMeV]G-NH2), the Papp [1] is reported as 1.6 ×10⁻⁶ cm/s, the solubility [2] is reported as > 2500 µM and the remaining at 24 h [3] is reported as 94%. It also gave a viability at 4 h [4] of 95%.
For CC[C@H](C)[C@@H](C(=O)N(C)CC(=O)N(C)[C@@H](CC(C)C)C(=O)N[C@@H](CCSC)C(=O)N(C)[C@H](C(=O)N(C)CC(N)=O)C(C)C)N(C)C(C)=O (Ac-[NMeI][Sar][NMeL]M[NMeV][Sar]-NH2), the Papp [1] was 1.4 ×10⁻⁶ cm/s, the solubility [2] was > 2500 µM and the remaining at 24 h [3] was 100%. The viability at 4 h [4] was 95%.
Work on Ac-IGLMVG-NH2 yielded a Papp [1] of 3.1 ×10⁻⁶ cm/s, a solubility [2] of 3 µM and a remaining at 24 h [3] of 20%. It also gave a viability at 4 h [4] of 95%.
With Ac-KLVFFA-NH2 the inhibition [5] was “Active”, the Papp [1] was 2.8 ×10⁻⁶ cm/s and the solubility [2] was 32 µM. It also gave a remaining at 24 h [3] of 36% and a viability at 4 h [4] of 95%.
